Measurements: US20240043860A1, “NOVEL HYDROXYPHENYLPYRUVATE DIOXYGENASE POLYPEPTIDES AND METHODS OF USE THEREOF” (Syngenta Crop Protection AG, priority 2020, published 2024)
Values joined by “and” are separate entries in the source; they are usually repeats but may differ in a detail not shown here. Equal values may be shown once.

Columns and labels:
[1] = test system: transgenic tobacco plants expressing mutant HPPD SEQ ID NO: 125; test: spray test, herbicidal damage scoring; type: in vivo
[2] = test system: HPPD variant AVESA V208 (SEQ ID NO: 14); test: biochemical; type: biochemical, Avena sativa; conditions: SEQ ID NO: 14 compared to control SEQ ID NO: 122
Experimental: (§1) 25 ul of the overnight cultures were inoculated into fresh 96-deepwell block containing 1 ml Formedium Autoinduction Media (AIM). The AIM cultures were grown for 3h at 37° C. (900rpm) and then transferred to 20° C. overnight (900rpm) to allow protein expression. The overnight cultures were centrifuged and 500 ul of Cellytic B (Sigma Aldrich) was added to resuspend the cell pellets. The coupled HGO assay (Siehl et al, 2014) is used to generate IC50 values for the HPPD variants of interest.
(§2) E. coli BL21 (DE3) cells were transformed with a pET24a vector containing a C-terminally his-tagged Arabidopsis HGO gene, grown and induced overnight as described for the HPPD variants above. The cell pellet was resuspended in phosphate buffered saline at pH 7.4 containing 10% Glycerol, 1mm Tris[2-carboxyethyl] phosphine-HCl (TCEP) plus 30 mM Imidazole and lysed using lysozyme/benzonase. The extract was clarified by low speed centrifugation and purified in the same buffer down a 1 ml His Gravitrap column. The bound HGO was eluted in 0.25M imidazole and the fractions pooled and beaded into liquid nitrogen. All procedures apart from the centrifugation and beading steps were carried out under a nitrogen atmosphere.
(§3) The coupled HGO assay is carried out by adding 10 ul of HPPD extract to a 96-well plate and then adding 40 ul of reaction buffer (50 mM Bis Tris Propane, pH7.0, 25 mM sodium-L-ascorbate, 400μM mercaptoethanol, 50 μM Fe(II)SO4). The plates are left to incubate for 5 minutes on ice. […] 200 ul of HPP/HGO (197 μM hydroxyphenylpyruvic acid, 16 μl/ml Homogentisic Acid Oxidase in reaction buffer as described above) buffer is then added to the well and the reaction is regularly monitored (e.g. every 30 seconds-5 minutes) for absorbance at 330 nm for a given time period (e.g., for between 15-60 minutes). The data can then be used to calculate the IC50 value for each HPPD variant of interest.

[3] = test system: transgenic tobacco plants expressing mutant HPPD SEQ ID NO: 8; test: spray test, herbicidal damage scoring; type: in vivo; conditions: 2000 g/ha; SEQ ID 8 plants compared to plants expressing SEQ IDs 122, 124 or 125
Experimental: (§4) Avena sativa HPPD or orthologues and variants thereof, for example SEQ IDs 1-63 and 122-127, were expressed in transgenic tobacco. DNA sequences that encode these polypeptides (optimized for tobacco or, optionally, codon optimized according to a target crop such as soybean) were prepared synthetically. Each sequence was designed to include a 5′ fusion with TMV omega 5′ leader sequence such that they are flanked at the 5′ end with XhoI and at the 3′ end with KpnI to facilitate direct cloning into a suitable binary vector for Agrobacterium-based plant transformation. […]
(§5) Plants are assessed for damage and scored at, for example, 7 and 14 days after treatment (DAT). […]
(§6) Plants of events showing the least damage are grown to flowering, then bagged and allowed to self. […] Single copy events amongst the Ti plant lines are identified by their 3:1 segregation ratio (with respect to kanamycin and/or herbicide) and by quantitative RT-PCR. […] HPPD expression levels were monitored by Western analysis. […]

[4] = test system: transgenic tobacco plants expressing mutant HPPD SEQ ID NO: 21; test: spray test, herbicidal damage scoring; type: in vivo; conditions: 2000 g/ha; SEQ ID 21 plants compared to plants expressing SEQ IDs 122, 124 or 125
Experimental: as §4, §5, §6

[5] = test system: HPPD variant AVESA V209 (SEQ ID NO: 17); test: biochemical; type: biochemical, Avena sativa; conditions: SEQ ID NO: 17 compared to control SEQ ID NO: 122
Experimental: as §1, §2, §3

[6] = target: HPPD variant AVESA V209 (SEQ ID NO: 17) (Avena sativa, UniProt A0ACD5V6K6, A327R/I340E/L359M/R214G/V218I/V260A); test: biochemical; type: biochemical
HPPD variant AVESA V209 (SEQ ID NO: 17) (Avena sativa, UniProt A0ACD5V6K6, A327R/I340E/L359M/R214G/V218I/V260A), sequence (A0ACD5V6K6 entry or part of it R214G/V218I/V260A/A327R/I340E/L359M): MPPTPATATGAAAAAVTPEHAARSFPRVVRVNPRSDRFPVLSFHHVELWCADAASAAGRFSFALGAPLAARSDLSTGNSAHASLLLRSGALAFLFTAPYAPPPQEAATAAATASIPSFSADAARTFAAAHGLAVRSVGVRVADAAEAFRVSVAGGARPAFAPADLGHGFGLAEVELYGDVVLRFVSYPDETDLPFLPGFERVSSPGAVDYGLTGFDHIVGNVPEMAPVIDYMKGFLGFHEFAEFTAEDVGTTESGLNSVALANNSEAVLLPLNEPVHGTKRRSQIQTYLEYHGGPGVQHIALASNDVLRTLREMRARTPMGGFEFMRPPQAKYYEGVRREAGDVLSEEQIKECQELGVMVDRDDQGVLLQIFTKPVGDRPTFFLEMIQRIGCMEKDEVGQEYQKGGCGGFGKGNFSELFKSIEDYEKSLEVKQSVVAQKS
Experimental: as §1, §2, §3

SMILES | tolerance ([1]; SEQ ID 125 plants, 100 g/ha (Table 3.4)) | herbicidal damage scoring, Herbicide C (200 g/ha) ([1]; Table 3.4, 14 days after treatment, SEQ ID 125, 100=complete death, 0=no damage, one value per event) | increase of the IC50 value [2] [fold] | damage [3] | damage [4] | increase of the IC50 value [5] [fold] | IC50 [6] [µM]
COc1ccc(-n2nc(C)cc(C(=O)C3C(=O)CCCC3=O)c2=O)cc1OC [Herbicide C, dioxopyritrione] | display tolerance | 60 and 80 and 75 and 85 | > 200 | – | – | – | –
Cn1nnnc1NC(=O)c1ccc(C(F)(F)F)nc1-n1cncn1 [Herbicide D, N-(1-methyltetrazol-5-yl)-2-(1,2,4-triazol-1-yl)-6-(trifluoromethyl)pyridine-3-carboxamide] | – | – | – | significantly reduced damage | significantly reduced damage | ~14 | 106
